Results taken from article PMC9320114 (Molecules, 2022).
Like-named read-outs stand apart in the source and are kept apart here.

What was measured:
[1] = target: MurC (Escherichia coli, UniProt P17952); assay: Inhibition of MurC, colorimetric malachite green method; format: biochemical, bacterial; settings: for remaining activity at 50 µM / remaining activity at 100 µM: 0.25 h; for remaining activity at 50 µM: read-out: MurC (RA [%]); for remaining activity at 100 µM: residual activity at 100 µM, read-out: MurC RA (%)
Sequence of MurC (P17952 whole entry): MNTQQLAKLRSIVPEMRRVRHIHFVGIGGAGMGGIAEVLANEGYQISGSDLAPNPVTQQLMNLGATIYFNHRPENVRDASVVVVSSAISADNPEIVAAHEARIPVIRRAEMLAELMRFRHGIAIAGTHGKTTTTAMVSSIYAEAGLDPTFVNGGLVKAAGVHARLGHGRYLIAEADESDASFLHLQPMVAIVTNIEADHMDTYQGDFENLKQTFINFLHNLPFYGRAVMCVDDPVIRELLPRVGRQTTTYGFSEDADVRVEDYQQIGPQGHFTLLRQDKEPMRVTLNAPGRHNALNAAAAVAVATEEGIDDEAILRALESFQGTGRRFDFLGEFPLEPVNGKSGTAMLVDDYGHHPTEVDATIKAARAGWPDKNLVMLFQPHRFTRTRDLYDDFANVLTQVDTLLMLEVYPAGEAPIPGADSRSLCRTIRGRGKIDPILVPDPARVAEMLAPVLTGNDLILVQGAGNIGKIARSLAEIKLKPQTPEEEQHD
Procedure: Inhibition of Mur enzymes was monitored with the colorimetric malachite green method, which measured orthophosphate formed during reaction. The mixtures with a final volume of 50 µL contained:
MurC: 50 mM HEPES-NaOH, pH 8.0, 5 mM MgCl2, 0.005% Triton X-114, 120 µM L-Ala, 120 µM UDP-N-acetyl-muramic acid, 450 µM ATP, purified MurC, and 50 or 100 µM of each compound tested.
All compounds were soluble in the assay mixtures containing 5% DMSO (v/v). After incubation for 15 min (20 min for DdlB) at 37 °C, the enzyme reaction was terminated by addition of Biomol® reagent (100 µL) and absorbance was measured after 5 min at 650 nm (Synergy™ H4 microplate reader; BioTek Instruments, Inc., BioTek Gen5 Data Analysis Software, version 2.9, Santa Clara, CA, USA). All experiments were performed in duplicate.

[2] = target: human butyrylcholinesterase (hBChE) (Homo sapiens, UniProt P06276); assay: biochemical; format: biochemical
Sequence of human butyrylcholinesterase (hBChE) (P06276 29-602): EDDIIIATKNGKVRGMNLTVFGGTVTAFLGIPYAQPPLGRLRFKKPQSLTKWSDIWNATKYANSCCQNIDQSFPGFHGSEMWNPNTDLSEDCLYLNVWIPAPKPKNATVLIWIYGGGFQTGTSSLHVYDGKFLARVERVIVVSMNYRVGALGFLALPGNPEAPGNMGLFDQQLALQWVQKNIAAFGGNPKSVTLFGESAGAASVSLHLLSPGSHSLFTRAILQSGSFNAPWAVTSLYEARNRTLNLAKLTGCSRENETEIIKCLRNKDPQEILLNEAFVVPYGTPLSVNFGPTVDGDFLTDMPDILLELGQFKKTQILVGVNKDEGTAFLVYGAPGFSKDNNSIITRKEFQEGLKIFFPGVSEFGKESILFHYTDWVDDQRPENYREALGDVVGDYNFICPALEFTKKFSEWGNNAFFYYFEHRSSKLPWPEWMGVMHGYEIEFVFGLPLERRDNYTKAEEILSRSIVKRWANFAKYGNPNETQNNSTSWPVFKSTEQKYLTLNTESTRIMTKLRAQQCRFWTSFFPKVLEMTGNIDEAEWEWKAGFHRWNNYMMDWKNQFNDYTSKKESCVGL
Procedure: (§1) Enzyme solutions were prepared by diluting the concentrated enzyme stock solutions (4.6 mg/mL in 10 mM MES-NaOH buffer, pH 6.5) in a sodium phosphate-buffered solution (0.1 M, pH 8.0). […] The final organic solvent (DMSO) content was always 1% (v/v). Reactions were initiated by adding the substrate to the enzyme and inhibitor, which were preincubated for 5 min. […] To determine the blank value (b), the enzyme solution was replaced by a phosphate-buffered solution. The initial velocity (v) was calculated from the slope of the linear trend obtained, with each measurement performed in triplicate. The inhibitory potencies were expressed as RA=(vi − b)/(vo − b), where vi is the velocity in the presence of the test compounds and vo is the control velocity in the presence of DMSO. Seven different concentrations of each compound were used for the IC50 measurements. IC50 values were obtained by plotting the residual enzyme activities against the applied inhibitor concentrations, fitting the experimental data to the 4-parameter Hill equation:(1) Y=Bottom+(Top−Bottom)/1+10^((LogIC50−X)×Hill Slope) where X is the logarithm of the inhibitor concentration, and Y is the residual activity. GraphPad Prism 8.2.0 (GraphPad Software, San Diego, CA, USA) was used for the fitting procedure.

[3] = target: T1, murine acetylcholinesterase (mAChE) (Mus musculus, UniProt P21836); assay: biochemical; format: biochemical; settings: for mAChE RA (%) / remaining activity at 10 µM / RA (mAChE, 10 µM): residual activity at 10 µM; for remaining activity at 10 µM: read-out: mAChE RA (%); for RA (mAChE, 10 µM): Figure 1
T1 sequence (P21836 32-614): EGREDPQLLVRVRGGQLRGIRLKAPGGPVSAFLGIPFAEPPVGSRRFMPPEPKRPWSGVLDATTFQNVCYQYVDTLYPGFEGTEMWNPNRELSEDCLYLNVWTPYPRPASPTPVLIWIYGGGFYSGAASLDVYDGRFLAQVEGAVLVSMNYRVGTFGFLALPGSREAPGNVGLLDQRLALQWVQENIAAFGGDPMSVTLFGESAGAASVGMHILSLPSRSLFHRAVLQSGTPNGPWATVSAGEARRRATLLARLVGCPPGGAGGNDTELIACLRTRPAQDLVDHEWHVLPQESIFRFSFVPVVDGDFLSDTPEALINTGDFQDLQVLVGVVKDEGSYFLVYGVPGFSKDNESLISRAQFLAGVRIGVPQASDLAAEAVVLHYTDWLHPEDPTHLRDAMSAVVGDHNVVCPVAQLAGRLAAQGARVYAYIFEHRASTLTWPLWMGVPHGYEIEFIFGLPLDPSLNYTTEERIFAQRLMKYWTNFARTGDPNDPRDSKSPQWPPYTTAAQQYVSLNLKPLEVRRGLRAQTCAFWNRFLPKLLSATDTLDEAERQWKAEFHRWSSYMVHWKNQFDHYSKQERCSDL
Procedure: as §1

[4] = target: T2, hMAO-A (Homo sapiens, UniProt P21397); assay: Inhibition of hMAO-A, fluorimetric Amplex Red assay; format: biochemical; settings: residual activity at 10 µM
T2 construct: purchased Sigma Aldrich; host or cells: BTI-TN-5B1-4 baculovirus-infected insect cells
T2 sequence (P21397 1-527): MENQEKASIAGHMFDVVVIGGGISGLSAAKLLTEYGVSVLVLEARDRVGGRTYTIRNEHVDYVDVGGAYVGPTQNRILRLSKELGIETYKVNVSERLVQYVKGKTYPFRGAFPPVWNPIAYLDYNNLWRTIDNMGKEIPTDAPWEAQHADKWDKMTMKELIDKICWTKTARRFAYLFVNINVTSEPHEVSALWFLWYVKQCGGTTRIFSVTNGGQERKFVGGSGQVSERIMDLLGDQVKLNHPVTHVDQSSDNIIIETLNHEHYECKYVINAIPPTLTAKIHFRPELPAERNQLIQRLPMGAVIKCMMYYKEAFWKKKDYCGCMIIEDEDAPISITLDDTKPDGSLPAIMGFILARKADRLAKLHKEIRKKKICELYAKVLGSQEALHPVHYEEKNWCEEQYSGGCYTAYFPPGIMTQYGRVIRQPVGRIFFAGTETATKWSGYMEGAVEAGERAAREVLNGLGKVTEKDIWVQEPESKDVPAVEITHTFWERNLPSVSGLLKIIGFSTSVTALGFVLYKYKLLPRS
Procedure: The effects of the compounds on hMAO-A and hMAO-B were investigated using a fluorimetric assay, following a method previously described in the literature. Recombinant human microsomal hMAO enzymes expressed in BTI-TN-5B1-4 baculovirus-infected insect cells, horseradish peroxidase (HRP, type II, lyophilized powder), and p-tyramine hydrochloride were purchased from Sigma Aldrich. 10-Acetyl-3,7-dihydroxyphenoxazine (Amplex Red reagent) was synthesized as described in the literature.
Briefly, 100 µL of 50 mM sodium phosphate buffer (pH 7.4, 0.05% (v/v) Triton X-114), containing the compounds and hMAO-A or hMAO-B, was incubated for 15 min at 37 °C in a flat-bottomed black 96-well microplate protected from ambient light. After preincubation, the reaction was started by adding final concentrations of 200 µM Amplex Red reagent, 2 U/mL HRP, and 1 mM p-tyramine hydrochloride. Resorufin production was quantified based on the fluorescence produced (λex = 530 nm; λem = 590 nm) at 37 °C over a 20 min period. For the control experiments, DMSO was used instead of appropriate dilutions of the compounds in DMSO. For the determination of blank (b), the enzyme solution was replaced by a phosphate-buffered solution. Initial velocities were calculated from the obtained trend, with each measurement performed in duplicate. Specific fluorescence emission to determine the final results was calculated after subtracting the blank activity (b). Inhibitory potencies were expressed as RAs, and IC50 values were calculated as described in the section “Inhibition of hBChE and mAChE” above.

[5] = residual activity at 10 µM; Table 4; read-out: hBChE RA (%)
[6] = Mini Library screen, Table S1, read-out: hMAO-A (RA [%])
[7] = residual activity at 10 µM; Mini Library screen, Table S1
[8] = Table 3, read-out: hMAO-A RA (%)
[9] = residual activity at 10 µM; Table 1; read-out: hBChE RA (%)

Structure (SMILES) | remaining activity at 50 µM [1] [%] | IC50 ([2]; Table 4; IC50 ± SEM; read-out: hBChE IC50) [nM] | remaining activity at 10 µM [2, 5] [%] | mAChE RA (%) ([3]; Mini Library screen, Table S1) | remaining activity at 10 µM ([3]; Table 4) [%] | remaining activity at 10 µM [4, 6] [%] | remaining activity at 100 µM ([1]; Table 2) [%] | IC50 ([1]; Table 2, IC50 ± SEM, read-out: MurC IC50) [nM] | hBChE RA (%) [2, 7] [%] | IC50 ([2]; read-out: hBChE IC50; Table 4; IC50 ± SEM) [nM] | IC50 [1] [nM] | remaining activity at 10 µM [4, 8] [%] | IC50 ([2]; Table 1; IC50 ± SEM; read-out: hBChE IC50) [nM] | remaining activity at 10 µM [2, 9] [%] | IC50 ([3]; Mini Library screen, Table S1) [nM] | IC50 ([3]; Table 1, IC50 ± SEM) [nM] | RA (mAChE, 10 µM) [3] [%] | remaining activity at 10 µM ([3]; Table 1) [%] | hMAO-A RA [%] ([4]; Table S3)
C1=C(c2ccccc2)CCN(CCCCc2c[nH]c3ccccc23)C1 [MS-ML10] | 74 | 35.6 ± 0.3 | 0 | 64 | 64 | 75 | – | – | – | – | – | – | – | – | – | – | – | – | –
CCCCc1nc2ccn(CC(=O)N3CCCCC3)c(=O)c2n1Cc1ccc(-c2ccccc2S(=O)(=O)NC(=O)OCc2ccccc2)cc1F [MS-ML05] | 55 | – | – | 96 | – | 79 | 32 | 101000 ± 23000 | 91 | – | – | – | – | – | – | – | – | – | –
Oc1ccc2[nH]cc(CCCCN3CC=C(c4ccccc4)CC3)c2c1 [MS-ML11] | 89 | – | 0 | 82 | 82 | 31 | – | – | – | 78.8 ± 10.3 | – | – | – | – | – | – | – | – | –
CCCCc1nc2ccn(Cc3ccccc3)c(=O)c2n1Cc1ccc(-c2ccccc2-c2nnn[nH]2)cc1 [MS-ML03] | 61 | – | – | 92 | – | 83 | 40 | – | 87 | – | 85000 ± 15000 | – | – | – | – | – | – | – | –
O=C(Nc1ccc(Oc2ccncc2)cc1)Nc1cc(C(F)(F)F)ccc1-n1cncn1 [MS-ML80] | 96 | – | – | 95 | – | 82 | – | – | 73 | – | – | 78 | – | – | – | – | – | – | –
CCCCCCN(Cc1ccc(C#Cc2ccc(CCCC)cc2)cc1)c1ccc(O)c(C(=O)O)c1 [MS-ML24] | 83 | – | – | – | – | 57 | – | – | 60 | – | – | – | 949 ± 46 | 9 | 414 ± 40 | 294 ± 25 | 1 | 1 | –
CCCCCCN(Cc1ccc(C#Cc2ccc(CCCC)cc2)cc1)C(=O)c1ccc(O)c(C(=O)O)c1 [MS-ML25] | 98 | – | – | – | – | 73 | – | – | 108 | – | – | – | – | 55 | 369 ± 55 | 485 ± 79 | 3 | 3 | –
CCCCCCN(Cc1ccc(C#Cc2ccc(CCCC)cc2)cc1)c1ccc(F)c(C(=O)O)c1 [MS-ML26] | 73 | – | – | – | – | 60 | – | – | 68 | – | – | – | – | 57 | 359 ± 39 | 275 ± 60 | 8 | 8 | –
O=C(OC[C@H]1CCCN1c1ccnc2ncnn12)c1ccc(Oc2ccccc2)nc1 [MS-ML31] | 94 | – | – | 89 | – | 78 | – | – | 84 | – | – | 98 | – | – | – | – | – | – | 98
